The subject of the data set is Pseudomonas aeruginosa, Escherichia coli, Klebsiella sp., Salmonella sp., Staphylococcus aureus, Enterococcus sp., Bacillus subtilis. As to the kind of experiment: Antimicrobial activity / minimum inhibitory concentrations on seven strains of bacteria. Format: cell-based. To be noted: for toxicity / antibacterial activity in words: seven strains of bacteria; for MIC values: seven strains, not split, range tested 0-20000 μg/ml. As for the experimental part: Seven strains of bacteria were used in the assessment of the antimicrobial activity of the ILs claimed: 4 gram negative and three gram positive as shown below.
A wide concentration range was tested (0-20000 μg/ml). The concentrations screened for antibacterial activity are generally from 2 μg/ml to 1000 μg/ml (Table 6). […] The concentration range screened for the ILs containing ethers was up to 20000 μg/ml. At these high concentrations a lack of antibacterial activity is a significant result.

Data on 38 compounds can be found in patent publication US8541598B2, “Biodegradable solvents for the chemical industry” (Dublin City University, priority 2007, dated 2013).

Take “2,3-dimethyl-1-(2-[2-butoxy]ethoxycarbonylmethyl)imidazolium BF4 [KG71]”: the “toxicity / antibacterial activity in words” value is given as “non-toxic” and the MIC values is over 20000 KG71 μg/ml. Regarding “2,3-dimethyl-1-(2-[2-butoxy]ethoxycarbonylmethyl)imidazolium PF6 [KG32]”, the “toxicity / antibacterial activity in words” value is “non-toxic” and the MIC values was over 20000 KG32 μg/ml.

On to “2,3-dimethyl-1-(2-[2-methoxyethoxy]ethoxycarbonylmethyl)imidazolium BF4 [KG72]”, for which the “toxicity / antibacterial activity in words” value is listed as “non-toxic” and the MIC values is on record as over 20000 KG72 μg/ml. As for “2,3-dimethyl-1-(2-[2-methoxyethoxy]ethoxycarbonylmethyl)imidazolium PF6 [KG33]”, the “toxicity / antibacterial activity in words” value was “non-toxic” and the MIC values is listed as over 20000 KG33 μg/ml. As for “3-methyl-1-(2-[2-butoxy]ethoxycarbonylmethyl)imidazolium BF4 [KG65]”, the “toxicity / antibacterial activity in words” value was “non-toxic” and the MIC values was over 20000 KG65 μg/ml. Taken in the same sequence, the figures for “3-methyl-1-(2-[2-butoxy]ethoxycarbonylmethyl)imidazolium PF6 [KG26]” were “non-toxic” and over 20000 KG26 μg/ml. Taken in the same sequence, the figures for “3-methyl-1-(2-[2-butoxyethoxy]ethoxycarbonylmethyl)imidazolium BF4 [KG69]” were “non-toxic” and over 20000 KG69 μg/ml. In the case of “3-methyl-1-(2-[2-butoxyethoxy]ethoxycarbonylmethyl)imidazolium PF6 [KG30]”, the “toxicity / antibacterial activity in words” value is “non-toxic” and the MIC values is over 20000 KG30 μg/ml.

With “3-methyl-1-(2-[2-ethoxy]ethoxycarbonylmethyl)imidazolium BF4 [KG63]”, the “toxicity / antibacterial activity in words” value is given as “non-toxic” and the MIC values is on record as over 20000 KG63 μg/ml. As to “3-methyl-1-(2-[2-ethoxy]ethoxycarbonylmethyl)imidazolium PF6 [KG24]”, the “toxicity / antibacterial activity in words” value was “non-toxic” and the MIC values was over 20000 KG24 μg/ml. Consider “3-methyl-1-(2-[2-ethoxyethoxy]ethoxycarbonylmethyl)imidazolium BF4 [KG67]”, for which the “toxicity / antibacterial activity in words” value is “non-toxic” and the MIC values is over 20000 KG67 μg/ml.

For the compound “3-methyl-1-(2-[2-ethoxyethoxy]ethoxycarbonylmethyl)imidazolium PF6 [KG28]”, the “toxicity / antibacterial activity in words” value is “non-toxic” and the MIC values was over 20000 KG28 μg/ml. Taken in the same sequence, the figures for “3-methyl-1-(2-[2-methoxy]ethoxycarbonylmethyl)imidazolium BF4 [KG62]” were “non-toxic” and over 20000 KG62 μg/ml. On the same counts, the results for “3-methyl-1-(2-[2-methoxy]ethoxycarbonylmethyl)imidazolium PF6 [KG23]” are “non-toxic” and over 20000 KG23 μg/ml.

Take “3-methyl-1-(2-[2-methoxy]ethoxycarbonylmethyl)imidazolium bromide [KG7]”: the “toxicity / antibacterial activity in words” value was “non-toxic” and the MIC values was over 20000 KG7 μg/ml. Taken in the same sequence, the figures for “3-methyl-1-(2-[2-methoxyethoxy]ethoxycarbonylmethyl)imidazolium BF4 [KG66]” were “non-toxic” and over 20000 KG66 μg/ml. As to “3-methyl-1-(2-[2-methoxyethoxy]ethoxycarbonylmethyl)imidazolium PF6 [KG27]”, the “toxicity / antibacterial activity in words” value is reported as “non-toxic” and the MIC values worked out at 2500 KG27 μg/ml. Taken in the same sequence, the figures for “3-methyl-1-(2-[2-propoxy]ethoxycarbonylmethyl)imidazolium BF4 [KG64]” were “non-toxic” and over 20000 KG64 μg/ml. Consider “3-methyl-1-(2-[2-propoxy]ethoxycarbonylmethyl)imidazolium PF6 [KG25]”, for which the “toxicity / antibacterial activity in words” value was “non-toxic” and the MIC values is over 20000 KG25 μg/ml. For “3-methyl-1-(2-[2-propoxyethoxy]ethoxycarbonylmethyl)imidazolium BF4 [KG68]”, the “toxicity / antibacterial activity in words” value was “non-toxic” and the MIC values was over 20000 KG68 μg/ml. On the same counts, the results for “3-methyl-1-(2-[2-propoxyethoxy]ethoxycarbonylmethyl)imidazolium PF6 [KG29]” are “non-toxic” and over 20000 KG29 μg/ml. Taken in the same sequence, the figures for `COCCOC(=O)Cn1cc[n+](C)c1.O=S(=O)([N-]S(=O)(=O)C(F)(F)F)C(F)(F)F` [KG49, 3-methyl-1-(2-[2-methoxy]ethoxycarbonylmethyl)imidazolium NTf2] were “non-toxic” and 10000 KG49 μg/ml. Taken in the same sequence, the figures for `CCOCCOC(=O)C[n+]1ccn(C)c1.O=S(=O)([N-]S(=O)(=O)C(F)(F)F)C(F)(F)F` [KG50, 3-methyl-1-(2-[2-ethoxy]ethoxycarbonylmethyl)imidazolium NTf2] were “non-toxic” and over 20000 KG50 μg/ml. `CCCOCCOC(=O)Cn1cc[n+](C)c1.O=S(=O)([N-]S(=O)(=O)C(F)(F)F)C(F)(F)F` [KG51, 3-methyl-1-(2-[2-propoxy]ethoxycarbonylmethyl)imidazolium NTf2]: the “toxicity / antibacterial activity in words” value is listed as “non-toxic” and the MIC values was 10000 KG51 μg/ml. Taken in the same sequence, the figures for `CCCCOCCOC(=O)Cn1cc[n+](C)c1.O=S(=O)([N-]S(=O)(=O)C(F)(F)F)C(F)(F)F` [KG52, 3-methyl-1-(2-[2-butoxy]ethoxycarbonylmethyl)imidazolium NTf2] were “non-toxic” and over 20000 KG52 μg/ml. Turning to `COCCOCCOC(=O)Cn1cc[n+](C)c1.O=S(=O)([N-]S(=O)(=O)C(F)(F)F)C(F)(F)F` [KG53, 3-methyl-1-(2-[2-methoxyethoxy]ethoxycarbonylmethyl)imidazolium NTf2], the “toxicity / antibacterial activity in words” value was “non-toxic” and the MIC values was found to be 10000 KG53 μg/ml.

For the compound `CCOCCOCCOC(=O)C[n+]1ccn(C)c1.O=S(=O)([N-]S(=O)(=O)C(F)(F)F)C(F)(F)F` [KG54, 3-methyl-1-(2-[2-ethoxyethoxy]ethoxycarbonylmethyl)imidazolium NTf2], the “toxicity / antibacterial activity in words” value is listed as “non-toxic” and the MIC values is on record as over 20000 KG54 μg/ml. Taken in the same sequence, the figures for `CCCOCCOCCOC(=O)C[n+]1ccn(C)c1.O=S(=O)([N-]S(=O)(=O)C(F)(F)F)C(F)(F)F` [KG55, 3-methyl-1-(2-[2-propoxyethoxy]ethoxycarbonylmethyl)imidazolium NTf2] were “non-toxic” and over 20000 KG55 μg/ml. For the compound `CCCCOCCOCCOC(=O)Cn1cc[n+](C)c1.O=S(=O)([N-]S(=O)(=O)C(F)(F)F)C(F)(F)F` [KG56, 3-methyl-1-(2-[2-butoxyethoxy]ethoxycarbonylmethyl)imidazolium NTf2], the “toxicity / antibacterial activity in words” value is given as “non-toxic” and the MIC values is on record as over 20000 KG56 μg/ml. On the same counts, the results for `CCCCOCCOC(=O)C[n+]1ccn(C)c1C.O=S(=O)([N-]S(=O)(=O)C(F)(F)F)C(F)(F)F` [KG58, 2,3-dimethyl-1-(2-[2-butoxy]ethoxycarbonylmethyl)imidazolium NTf2] are “non-toxic” and over 20000 KG58 μg/ml. Take `COCCOCCOC(=O)Cn1cc[n+](C)c1C.O=S(=O)([N-]S(=O)(=O)C(F)(F)F)C(F)(F)F` [KG59, 2,3-dimethyl-1-(2-[2-methoxyethoxy]ethoxycarbonylmethyl)imidazolium NTf2]: the “toxicity / antibacterial activity in words” value was “non-toxic” and the MIC values is listed as over 20000 KG59 μg/ml. The compound `CCCCOC(=O)Cn1cc[n+](C)c1.N#C[N-]C#N` [KG73, 3-Methyl-1-(butoxycarbonylmethyl) imidazolium N(CN)2^−] returned an MIC values of 5000 KG73 μg/ml. On to `COCCOC(=O)Cn1cc[n+](C)c1.N#C[N-]C#N` [KG75, 3-methyl-1-(2-[2-methoxy]ethoxycarbonylmethyl)imidazolium N(CN)2], for which the “toxicity / antibacterial activity in words” value is recorded as “non-toxic” and the MIC values is given as over 20000 KG75 μg/ml. Taken in the same sequence, the figures for `CCOCCOC(=O)C[n+]1ccn(C)c1.N#C[N-]C#N` [KG76, 3-methyl-1-(2-[2-ethoxy]ethoxycarbonylmethyl)imidazolium N(CN)2] were “non-toxic” and over 20000 KG76 μg/ml. In the case of `CCCOCCOC(=O)C[n+]1ccn(C)c1.N#C[N-]C#N` [KG77, 3-methyl-1-(2-[2-propoxy]ethoxycarbonylmethyl)imidazolium N(CN)2], the “toxicity / antibacterial activity in words” value is recorded as “non-toxic” and the MIC values is given as over 20000 KG77 μg/ml. Taken in the same sequence, the figures for `CCCCOCCOC(=O)Cn1cc[n+](C)c1.N#C[N-]C#N` [KG78, 3-methyl-1-(2-[2-butoxy]ethoxycarbonylmethyl)imidazolium N(CN)2] were “non-toxic” and over 20000 KG78 μg/ml.

In the case of `COCCOCCOC(=O)Cn1cc[n+](C)c1.N#C[N-]C#N` [KG79, 3-methyl-1-(2-[2-methoxyethoxy]ethoxycarbonylmethyl)imidazolium N(CN)2], the “toxicity / antibacterial activity in words” value is “non-toxic” and the MIC values is given as over 20000 KG79 μg/ml. Taken in the same sequence, the figures for `CCOCCOCCOC(=O)Cn1cc[n+](C)c1.N#C[N-]C#N` [KG80, 3-methyl-1-(2-[2-ethoxyethoxy]ethoxycarbonylmethyl)imidazolium N(CN)2] were “non-toxic” and over 20000 KG80 μg/ml.
